Data taken from US9757455B2, “Oral therapeutic compound delivery system” (Johnson & Johnson Consumer Inc., priority 2005, dated 2017).
Converted amounts (≈) assume the structure as drawn. Structures can show the parent of a compound that is named as a salt. Where two headings read alike, the source gives them in different places. Marks after values point to notes of the source that are not given here.

Key:
[1] = Dissolution, USP dissolution apparatus 2, 900 mL 0.0033 N hydrochloric acid, 30 rpm, 37° C.; format: physicochemical; conditions: basic and amphoteric drugs in formulations according to the invention (Table 32)
Experimental: (§1) Testing was conducted in a dissolution medium containing 900 mL 0.0033 N hydrochloric acid (HCl) at 37° C. which discriminates better between fast dissolving formulations than more acidic dissolution media where the effect of high acid concentration tends to mask formulation effects on dissolution. 900 mL of this medium contains the absolute amount of acid estimated to be present in the gastric contents in vivo, namely 3 millimoles.
(§2) Testing at was conducted at a stirring speed of 30 rpm and also at 0 rpm which provides more discrimination between formulations. To achieve maximum dissolution, the stirring speed was increased to 250 rpm for 10 minutes after 20 minutes for measurements at 30 rpm, and after 60 minutes for measurements at 0 rpm.
(§3) Unless otherwise stated, drug concentrations were measured using a Varian Cary 50 UV-Vis Spectrophotometer set at an appropriate wavelength using flow through cells for automatic continuous sampling. For each drug, the optimal wavelength was selected after running UV scans in the dissolution medium.
A suitable C18 column and guard column were used. Results were processed using Waters Empower software.

[2] = Dissolution, USP dissolution apparatus 2, 900 mL 0.0033 N hydrochloric acid, 0 rpm, 37° C.; format: physicochemical; conditions: for % dissolved in 900 mL 0.0033 N HCl: basic and amphoteric drugs in formulations according to the invention (Table 32), 0 rpm
Experimental: as §1
Dissolution results without stirring may be of in vivo significance in conditions where there is gut stasis or reduced gastric activity.
as §2, §3

[3] = Effect of different alkaline agents on paracetamol absorption in vivo (5 subject crossover studies, plasma paracetamol); conditions: human, oral, 1000 mg, two tablets each 500 mg paracetamol, fasted, read-out: Median AUC20 (converted)
Experimental: In a series of multiple 5 subject crossover studies, the effect of a range of different formulations containing different alkali agents on in vivo absorption were investigated. Subjects were fasted overnight and dosed with two tablets each containing 500 mg paracetamol. Plasma levels of paracetamol were monitored for 8 hours, with 10 samples taken in the first hour.

[4] = 30 minutes, 30 rpm (increased to 250 rpm after 20 minutes)
[5] = dose (mg) of each drug as in Table 78

| Structure (SMILES) | % dissolved in 900 mL 0.0033 N HCl ([1]; 180 sec, 30 rpm) [%] | % dissolved in 900 mL 0.0033 N HCl ([1]; 300 sec, 30 rpm) [%] | % dissolved in 900 mL 0.0033 N HCl ([1]; 15 minutes, 30 rpm) [%] | % dissolved in 900 mL 0.0033 N HCl [1, 4] [%] | Volume (mL) of water to dissolve dose (Solubility in water; [5]) [mL] | % dissolved in 900 mL 0.0033 N HCl ([2]; 180 sec) [%] | % dissolved in 900 mL 0.0033 N HCl ([2]; 300 sec) [%] | % dissolved in 900 mL 0.0033 N HCl ([2]; 15 minutes) [%] | % dissolved in 900 mL 0.0033 N HCl ([2]; 30 minutes) [%] | further results |
| --- | --- | --- | --- | --- | --- | --- | --- | --- | --- | --- |
| CCN(CC)CCNC(=O)c1cc(Cl)c(N)cc1OC [Metoclopramide hydrochloride] | 94 | 95 | 97 | 100 | 50 | 26 | 69 | 86 | 91 | % drug dissolved in 900 mL 0.0033 N HCl at 0 rpm ([2]; pH modulating agent: Bicarb + acid, 300 sec (Table 33)): 69%; % drug dissolved in 900 mL 0.0033 N HCl at 0 rpm ([2]; pH modulating agent: Bicarb + acid, 15 min (Table 33)): 86%; % drug dissolved in 900 mL 0.0033 N HCl at 0 rpm ([2]; pH modulating agent: Bicarb + acid, 30 min (Table 33)): 91%; % drug dissolved in 900 mL 0.0033 N HCl at 0 rpm ([2]; pH modulating agent: Bicarbonate, 300 sec (Table 33)): 5%; % drug dissolved in 900 mL 0.0033 N HCl at 0 rpm ([2]; pH modulating agent: Bicarbonate, 15 min (Table 33)): 28%; % drug dissolved in 900 mL 0.0033 N HCl at 0 rpm ([2]; pH modulating agent: Bicarbonate, 30 min (Table 33)): 46% |
| Cc1nccn1CC1CCc2c(c3ccccc3n2C)C1=O (stereo not drawn) [Ondansetron hydrochloride] | 88 | 96 | 100 | 100 | 4 | 50 | 65 | 79 | 85 | Solubility in water (Solubility in water): 2.42 mg/mL |
| CC(=O)Nc1ccc(O)cc1 [Paracetamol] |  |  |  |  |  |  |  |  |  | Effect of ↑ pH on solubility (Solubility in water): ⇄; Volume of water (mL) to dissolve dose (Solubility in water; dose per tablet as in label): 36 mL; water needed for total dissolution of the dose (Solubility in water; doses of Example 33 (tramadol hydrochloride 37.5 mg, paracetamol 325 mg)): around 27 mL; solubility (Solubility in water; water): ~14 mg/mL (≈ 92.6 mM); AUC ([3]; Magnesium carbonate, dose 150 mg): 1140 ng·h/mL; AUC ([3]; Magnesium carbonate, dose 300 mg): 2010 ng·h/mL; AUC ([3]; Sodium bicarbonate, dose 200 mg): 3810 ng·h/mL; AUC ([3]; Sodium bicarbonate, dose 400 mg): 4760 ng·h/mL; AUC ([3]; Sodium bicarbonate, dose 800 mg): 4400 ng·h/mL; AUC ([3]; Sodium bicarbonate, dose 1200 mg): 2680 ng·h/mL; AUC ([3]; alkaline agent None, dose 0 mg): 1590 ng·h/mL |
| C[C@]12C=CC(=O)C=C1CC[C@@H]1[C@@H]2[C@@H](O)C[C@@]2(C)[C@H]1CC[C@]2(O)C(=O)CO [Prednisolone] |  |  |  |  |  |  |  |  |  | Volume of water (mL) to dissolve dose (Solubility in water; dose per tablet as in label, listed as Prednisolone 5 mg): 23 mL; Volume of water (mL) to dissolve dose (Solubility in water; dose per tablet as in label, listed as Prednisolone 25 mg): 114 mL |
| CN(C)CCc1c[nH]c2ccc(Cn3cncn3)cc12 [Rizatriptan benzoate] | 96 | 96 | 96 | 97 | 0.3 | 94 |  | 100 | 100 | Solubility in water (Solubility in water; solubility of the base not salt): 42* mg/mL |
| CN1C(=O)C(O)N=C(c2ccccc2)c2cc(Cl)ccc21 (stereo not drawn) [Temazepam] |  |  |  |  |  |  |  |  |  | Volume of water (mL) to dissolve dose (Solubility in water): 83 mL |
| COc1cccc(C2(O)CCCCC2CN(C)C)c1 (stereo not drawn) [Tramadol hydrochloride] | 100 | 100 | 100 | 100 |  | 87 | 95 | 99 | 100 | Volume (mL) of water to dissolve dose (Solubility in water): 1.3 mL; water needed for total dissolution of the dose (Solubility in water): around 1 mL; solubility (physchem): ~30 mg/mL; solubility (physchem; water): ~30 mg/mL |
| CN(C)CCc1c[nH]c2ccc(C[C@H]3COC(=O)N3)cc12 [Zolmitriptan] | 73 | 76 | 86 | 98 | 2 | 66 | 77 | 88 | 96 |  |
| Cc1ccc(-c2nc3ccc(C)cn3c2CC(=O)N(C)C)cc1 [Zolpidem tartrate] | 96 | 96 | 97 | 98 | 0.4 | 77 | 91 | 94 | 96 |  |
